These molecules were tested against T1, human PAD4 (Homo sapiens, UniProt Q9UM07) (assay: In vitro PAD4 BAEE biochemical assay). Conditions: human PAD4, BAEE substrate; 5 nM PAD4, 2 mM calcium chloride, 3 mM BAEE; geometric mean of multiple experiments.
T1 construct: human PAD4 (NM_012387), A2P663, was PCR amplified; His-SUMO (N, cleaved yes); made in house; host or cells: E. coli BL21(DE3)
T1 sequence (Q9UM07 2-663): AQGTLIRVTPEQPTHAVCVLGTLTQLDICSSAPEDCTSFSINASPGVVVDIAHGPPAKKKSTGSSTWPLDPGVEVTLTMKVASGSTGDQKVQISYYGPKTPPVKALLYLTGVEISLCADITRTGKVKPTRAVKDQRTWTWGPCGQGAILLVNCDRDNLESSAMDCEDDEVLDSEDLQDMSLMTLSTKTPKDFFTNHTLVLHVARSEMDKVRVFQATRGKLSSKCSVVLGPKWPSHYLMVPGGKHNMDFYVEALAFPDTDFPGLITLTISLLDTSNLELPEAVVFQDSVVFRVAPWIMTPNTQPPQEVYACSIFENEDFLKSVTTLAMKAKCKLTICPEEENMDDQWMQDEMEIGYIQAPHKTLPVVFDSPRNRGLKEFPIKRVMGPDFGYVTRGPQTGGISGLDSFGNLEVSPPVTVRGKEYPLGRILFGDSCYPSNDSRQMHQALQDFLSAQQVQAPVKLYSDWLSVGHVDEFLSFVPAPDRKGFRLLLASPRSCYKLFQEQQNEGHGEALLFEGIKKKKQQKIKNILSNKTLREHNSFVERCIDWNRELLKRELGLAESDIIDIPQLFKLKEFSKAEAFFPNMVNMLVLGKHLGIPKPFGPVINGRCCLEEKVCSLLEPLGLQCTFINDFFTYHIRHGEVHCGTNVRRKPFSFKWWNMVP
Summary of the method: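 Ammonia release from BAEE deimination monitored by o-phthalaldehyde amine coupling (1 h, 25 °C) after EDTA stop. Final conditions: 5 nM tag-free recombinant human PAD4 (E. coli), 2 mM CaCl2, 3 mM BAEE, pH 7.6 MOPS with DTT; 30 min compound preincubation, then 2 h reaction at 25 °C.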
`COc1cc(C(=O)N2[C@H]3CC[C@@H]2[C@H](N)C3)cc2nc(-c3cc4ccc([C@@H](C)NC(=O)N(C)Cc5cccc(=O)[nH]5)nc4n3CC3CC3)c(C)n12` [Example 220, 3-[(1~{R})-1-[2-[7-[(1~{R},2~{R},4~{S})-2-amino-7-azabicyclo[2.2.1]heptane-7-carbonyl]-5-methoxy-3-methylimidazo [1,2-a]pyridin-2-yl]-1-(cyclopropylmethyl)pyrrolo [2,3-b]pyridin-6-yl]ethyl]-1-methyl-1-[(6-oxo-1~{H}-pyridin-2-yl)methyl]urea] gave an IC50 of 0.0791 µM. For `COc1cc(C(=O)NC2C3CCCNC32)cc2nc(-c3cc4ccc(N(C(F)F)S(C)(=O)=O)nc4n3CC3CC3)c(C)n12` (centres unmarked) [Example 339, ~{N}-(2-azabicyclo[4.1.0]heptan-7-yl)-2-[1-(cyclopropylmethyl)-6-[difluoromethyl (methylsulfonyl)amino]pyrrolo[2,3-b]pyridin-2-yl]-5-methoxy-3-methylimidazo[1,2-a]pyridine-7-carboxamide], the IC50 was 21.5 µM. In the case of `CCc1ccc2cc(-c3nc4cc(C(=O)N5CC[C@@H](OC)[C@@H](N)C5)cc(OC)n4c3C)n(CC3CC3)c2n1` [Example 579, [(3~{S},4~{R})-3-amino-4-methoxypiperidin-1-yl]-[2-[1-(cyclopropylmethyl)-6-ethylpyrrolo[2,3-b]pyridin-2-yl]-5-methoxy-3-methylimidazo[1,2-a]pyridin-7-yl]methanone], the IC50 is reported as 0.412 µM. `COc1cc(C(=O)N2[C@H]3CC[C@@H]2[C@H](N)C3)cc2nc(-c3cc4ccc([C@@H](C)NC(=O)C(C)C(F)(F)F)nc4n3CC3CC3)c(C)n12` (some centres unmarked) [Example 7, ~{N}-[(1~{R})-1-[2-[7-[(1~{R},2~{R},4~{S})-2-amino-7-azabicyclo [2.2.1]heptane-7-carbonyl]-5-methoxy-3-methylimidazo [1,2-a]pyridin-2-yl]-1-(cyclopropylmethyl)pyrrolo[2,3-b]pyridin-6-yl]ethyl]-3,3,3-trifluoro-2-methylpropanamide] gave an IC50 of 0.127 µM. `CS(=O)(=O)N(c1ccc2cc(-c3nc4cc(C(=O)N5CC[C@@H](N)C5)ccn4c3C3CC3)n(CC3CC3)c2n1)C(F)F` [Example 393, ~{N}-[2-[7-[(3~{R})-3-aminopyrrolidine-1-carbonyl]-3-cyclopropylimidazo[1,2-a]pyridin-2-yl]-1-(cyclopropylmethyl)pyrrolo [2,3-b]pyridin-6-yl]-~{N}-(difluoromethyl) methanesulfonamide] showed an IC50 of 2.01 µM. In the case of `CCc1ccc2cc(-c3nc4cc(C(=O)N5[C@H]6CC[C@@H]5[C@H](N)C6)cc(OC)n4c3C)n(C[C@@H]3C[C@@H]3C(F)(F)F)c2n1` [Example 501], the IC50 is reported as 0.827 µM. For `COCc1nn(C)cc1C(=O)N[C@H](C)c1ccc2cc(-c3nc4cc(C(=O)N5[C@H]6CC[C@@H]5[C@H](N)C6)cc(OC)n4c3C)n(CC3CC3)c2n1` [Example 23, ~{N}-[(1~{R})-1-[2-[7-[(1~{R},2~{R},4~{S})-2-amino-7-azabicyclo [2.2.1]heptane-7-carbonyl]-5-methoxy-3-methylimidazo [1,2-a]pyridin-2-yl]-1-(cyclopropylmethyl)pyrrolo[2,3-b]pyridin-6-yl]ethyl]-3-(methoxymethyl)-1-methylpyrazole-4-carboxamide], the IC50 was 0.0613 µM. `COc1cc(C(=O)N2[C@H]3CC[C@@H]2[C@H](N)C3)cc2nc(-c3cc4ccc([C@@H](C)NC(=O)C5CC6(CCC6)C5)nc4n3CC3CC3)c(C)n12` [Example 43, ~{N}-[(1~{R})-1-[2-[7-[(1~{R},2~{R},4~{S})-2-amino-7-azabicyclo[2.2.1]heptane-7-carbonyl]-5-methoxy-3-methylimidazo [1,2-a]pyridin-2-yl]-1-(cyclopropylmethyl)pyrrolo[2,3-b]pyridin-6-yl]ethyl]spiro[3.3]heptane-2-carboxamide] showed an IC50 of 0.0496 µM. Work on `COc1cc(C(=O)N2[C@H]3CC[C@@H]2[C@H](N)C3)cc2nc(-c3cc4ccc([C@@H](C)NC(=O)C56CC(CO5)C6)nc4n3CC3CC3)c(C)n12` [Example 132, ~{N}-[(1~{R})-1-[2-[7-[(1~{R},2~{R},4~{S})-2-amino-7-azabicyclo[2.2.1]heptane-7-carbonyl]-5-methoxy-3-methylimidazo [1,2-a]pyridin-2-yl]-1-(cyclopropylmethyl)pyrrolo [2,3-b]pyridin-6-yl]ethyl]-2-oxabicyclo[2.1.1]hexane-1-carboxamide] yielded an IC50 of 0.698 µM. Molecule `COc1cc(C(=O)N2C[C@H]3CC[C@@H]2[C@@H]3N)cc2nc(-c3cc4ccc([C@@H](C)NC(=O)N5CCCC5)nc4n3CC3CC3)c(C)n12` [Example 250, N-((R)-1-(2-(7-((1R,4R,7R)-7-amino-2-azabicyclo[2.2.1]heptane-2-carbonyl)-5-methoxy-3-methylimidazo[1,2-a]pyridin-2-yl)-1-(cyclopropylmethyl)-1H-pyrrolo[2,3-b]pyridin-6-yl)ethyl) pyrrolidine-1-carboxamide] has an IC50 of 0.193 µM. Molecule `CCO[C@@H]1CCN(C(=O)c2cc(OC)n3c(C)c(-c4cc5ccc(N(C(F)F)S(C)(=O)=O)nc5n4CC4CC4)nc3c2)C[C@@H]1N` [Example 340, ~{N}-[2-[7-[(3~{S}, 4~{R})-3-amino-4-ethoxypiperidine-1-carbonyl]-5-methoxy-3-methylimidazo [1,2-a]pyridin-2-yl]-1-(cyclopropylmethyl)pyrrolo [2,3-b]pyridin-6-yl]-~{N}-(difluoromethyl) methanesulfonamide] has an IC50 of 0.23 µM. `COc1cc(C(=O)N2[C@H]3CC[C@@H]2[C@H](N)C3)cc2nc(-c3cc4ccc([C@@H](C)NC(=O)C5(C(F)(F)F)CCC5)nc4n3CC3CC3)c(C)n12` [Example 44, ~{N}-[(1~{R})-1-[2-[7-[(1~{R},2~{R},4~{S})-2-amino-7-azabicyclo[2.2.1]heptane-7-carbonyl]-5-methoxy-3-methylimidazo [1,2-a]pyridin-2-yl]-1-(cyclopropylmethyl)pyrrolo[2,3-b]pyridin-6-yl]ethyl]-1-(trifluoromethyl) cyclobutane-1-carboxamide] showed an IC50 of 0.0561 µM. Work on `COc1cc(C(=O)N2[C@@H]3CC[C@@H](N)[C@H]2CC3)cc2nc(-c3cc4ccc(N(C(F)F)S(C)(=O)=O)nc4n3CC3CC3)c(C)n12` [Example 410, ~{N}-[2-[7-[(1~{R},2~{R}, 5~{R})-2-amino-8-azabicyclo[3.2.1]octane-8-carbonyl]-5-methoxy-3-methylimidazo[1,2-a]pyridin-2-yl]-1-(cyclopropylmethyl)pyrrolo [2,3-b]pyridin-6-yl]-~{N}-(difluoromethyl) methanesulfonamide] yielded an IC50 of 0.233 µM. In the case of `COc1cc(C(=O)N2C[C@H]3CC[C@@H]2[C@@H]3N)cc2nc(-c3cc4ccc([C@@H](C)NC(=O)[C@H]5CC5(F)F)nc4n3CC3CC3)c(C)n12` [Example 100, (R)-N-((R)-1-(2-(7-((1R,4R,7R)-7-amino-2-azabicyclo[2.2.1]heptane-2-carbonyl)-5-methoxy-3-methylimidazo[1,2-a]pyridin-2-yl)-1-(cyclopropylmethyl)-1H-pyrrolo[2,3-b]pyridin-6-yl)ethyl)-2,2-difluorocyclopropane-1-carboxamide], the IC50 is reported as 0.0767 µM. `CCOC(=O)CCC(=O)N[C@H](C)c1ccc2cc(-c3nc4cc(C(=O)N5[C@H]6CC[C@@H]5[C@H](N)C6)cc(OC)n4c3C)n(CC3CC3)c2n1` [Example 152, ethyl 4-[[(1~{R})-1-[2-[7-[(1~{R},2~{R},4~{S})-2-amino-7-azabicyclo[2.2.1]heptane-7-carbonyl]-5-methoxy-3-methylimidazo [1,2-a]pyridin-2-yl]-1-(cyclopropylmethyl)pyrrolo [2,3-b]pyridin-6-yl]ethyl]amino]-4-oxobutanoate] gave an IC50 of 0.0635 µM. `COc1cc(C(=O)N2[C@@H]3CC[C@H]2[C@@H](N)[C@@H](O)C3)cc2nc(-c3cc4ccc(N(C(F)F)S(C)(=O)=O)nc4n3CC3CC3)c(C)n12` [Example 414, ~{N}-[2-[7-[(1~{S}, 2~{R},3~{S},5~{R})-2-amino-3-hydroxy-8-azabicyclo[3.2.1]octane-8-carbonyl]-5-methoxy-3-methylimidazo [1,2-a]pyridin-2-yl]-1-(cyclopropylmethyl)pyrrolo [2,3-b]pyridin-6-yl]-~{N}-(difluoromethyl) methanesulfonamide] gave an IC50 of 5.25 µM. Work on `COc1cc(C(=O)N2[C@H]3CC(C)[C@@H]2[C@H](N)C3)cc2nc(-c3cc4ccc(N(C(F)F)S(C)(=O)=O)nc4n3CC3CC3)c(C)n12` (stereo partly drawn) [Example 351, N-[2-[7-[(1R,2R,4S)-2-amino-6-methyl-7-azabicyclo[2.2.1]heptane-7-carbonyl]-5-methoxy-3-methyl-imidazo[1,2-a]pyridin-2-yl]-1-(cyclopropylmethyl)pyrrolo [2,3-b]pyridin-6-yl]-N-(difluoromethyl) methanesulfonamide] yielded an IC50 of 6.51 µM. `COc1cc(C(=O)N2[C@H]3CC[C@@H]2[C@H](N)C3)cc2nc(-c3cc4ccc(Oc5ccccc5)nc4n3CC3CC3)c(C)n12` [Example 628, [(1~{R},2~{R},4~{S})-2-amino-7-azabicyclo [2.2.1]heptan-7-yl]-[2-[1-(cyclopropylmethyl)-6-phenoxypyrrolo[2,3-b]pyridin-2-yl]-5-methoxy-3-methylimidazo[1,2-a]pyridin-7-yl]methanone] was tested, and the IC50 was 0.553 µM. `COc1cc(C(=O)N2CCC[C@@H](N)C2)cc2nc(-c3cc4ccc(-c5cccnc5-c5ccccc5)nc4n3CC3CC3)c(C)n12` [Example 607, [(3~{R})-3-aminopiperidin-1-yl]-[2-[1-(cyclopropylmethyl)-6-(2-phenylpyridin-3-yl)pyrrolo [2,3-b]pyridin-2-yl]-5-methoxy-3-methylimidazo[1,2-a]pyridin-7-yl]methanone] showed an IC50 of 0.345 µM. Molecule `COc1cc(C(=O)N2[C@H]3CC[C@@H]2[C@H](N)C3)cc2nc(-c3cc4ccc(C(C)(O)c5ccccc5)nc4n3CC3CC3)c(C)n12` (some centres unmarked) [Example 573, [(1~{R},2~{R},4~{S})-2-amino-7-azabicyclo [2.2.1]heptan-7-yl]-[2-[1-(cyclopropylmethyl)-6-(1-hydroxy-1-phenylethyl)pyrrolo[2,3-b]pyridin-2-yl]-5-methoxy-3-methylimidazo[1,2-a]pyridin-7-yl]methanone] has an IC50 of 1 µM.
